Data set [1] addresses Bromodomain-containing protein 4 (Homo sapiens, UniProt O60885, Y390A). The experiment in a line: Binding affinity to 6His-tagged-BRD4 BD1 Y390A mutant (1 to 477 aa) (unknown origin) by TR-FRET competitive assay. A general note: Time-resolved FRET reads energy transfer from a long-lived donor to a nearby acceptor.
Data set [2] concerns the target Bromodomain-containing protein 4 (Homo sapiens) (UniProt O60885). The experiment in a line: Binding affinity to His-tagged-BRD4 BD1 (1 to 477 aa) (unknown origin) by STD-NMR analysis.
Data set [3] shares this target. The experiment in a line: Binding affinity to His-tagged-BRD4 BD1 (1 to 477 aa) (unknown origin) by STD-NMR analysis in presence of GW841819.
Data set [4] in a line: Aqueous solubility of the compound in DMSO/phosphate buffered saline at pH7.4 by chemiluminescent nitrogen detection method. The format is physicochemical. The following applies: pH 7.4.
Data set [5] is described as follows: Permeability of the compound across artificial lipid membrane. The format is ADME. The following applies: not told; read-out: permeability.

Molecules are shown by their SMILES. Converted amounts (≈) assume the structure as drawn. The source made the active and inactive calls. No cut-off for these calls is given here. A value given as a limit tells only on which side of the number the result lay.

In the case of `COc1cccc(C(=O)Nc2ccc3c(c2)n(C)c(=O)n3C)c1`, the IC50 (as a rule, the point on the concentration scale where inhibition reaches its midpoint) in data set [1] was 15.8 µM.

For the compound `Cn1c(=O)n(C)c2cc(C(N)=O)ccc21`, the outcome in data set [2] was Active. Also, the result in data set [3] was inactive. This compound showed a half-inhibitory concentration (IC50) in data set [1] of 79.4 µM.

`COc1cccc(C(=O)Nc2cc3c(cc2C)n(C)c(=O)n3C)c1` had a 50% inhibitory concentration (IC50) in data set [1] above 50.1 µM.

In turn, `COc1ccccc1C(=O)Nc1ccc2c(c1)n(C)c(=O)n2C` gave an IC50 in data set [1] above 50.1 µM.

As for `COc1ccccc1C(=O)Nc1cc2c(cc1N1CCCCC1)n(C)c(=O)n2C`, in data set [4], the solubility (kinetic) – broadly, solubility judged after dilution from a stock solution rather than from solid – stood at 25 µM (≈ 9.86 µg/mL). Also, in data set [5], the Papp turned out to be 35 ×10⁻⁶ cm/s.

Turning to `Cc1ccc(S(=O)(=O)Nc2ccc3c(c2)n(C)c(=O)n3C)c(C)c1`, the IC50 in data set [1] is 2.51 µM.

For the origin of these results see ChEMBL document CHEMBL3352488, “1,3-Dimethyl Benzimidazolones Are Potent, Selective Inhibitors of the BRPF1 Bromodomain” (ACS Med Chem Lett, 2014).
